Assay [1] addresses SCD1 (Rattus norvegicus (Rat), UniProt P07308). The experiment in a line: SCD1 enzymatic assay in rat liver microsomes (RLM). Type of assay: biochemical. The settings on record: rat liver microsomes; for inhibition at 1 µM: read-out: % Inh.@ 1 μM. Here is the method:
Step 1: Preparation of Rat Liver Microsome (RLM):
Sprague Dawley rats from Charles River (200-225 g) underwent 2-cycle of fast-re-feeding (24-hour fast followed by 24-hour feeding with fat-free high carbohydrate diet, Reseach Diet, D00042802). The livers were removed and homogenized 1:4 (w/v) with pre-chilled, homogenizing buffer (10 mM Tris-HCl, 0.25 M sucrose, 1 mM EDTA, pH 7.4, supplemented with protease inhibitor cocktail). The homogenate was spun at 12,000×g for 15 min at 4° C. The supernatant was then re-centrifuged at 100,000×g for 60 min at 4° C. The pellet was re-suspended in 2 ml pre-chilled […] potassium phosphate buffer, pH 7.2, 10 mM EDTA at a concentration of 20 mg/ml. The resulting rat liver microsome (RLM) preparation was stored at −80° C.
Step 2: SCD1 Enzymatic Assay in RLM:
The SCD1 enzymatic assay was done in a volume of 50 μL using 10 μg of RLM (prepared as described above) in a 96-well polypropylene plate (enzyme reaction buffer contains 0.1 M K-Phosphate Buffer, 10 mM ATP, 6 mM MgCl2. 1 mM CoA, 1 mM β-NADH, 1.6 mM L-glutathione, 20 μM Stearoyl-CoA). Stearoyl-[9,10-^3H]-CoA (ARC-0390, 1 mCi/mL, 60 Ci/mmol,) was added at a final concentration of 2 μCi/mL. Test compound was then added to the reaction mixture at the selected concentration. After incubation at room temperature for 2 hours, 5 μL 1 N HCl was added to stop the reaction, followed by addition of 25 μL of 10% charcoal. The reaction mixture was then transferred to 96-well Multiscreen plate (Millipore, Cat#MSFCN6B50). […] The measured cpm values were fitted with Sigmoidal dose-response curve fit with Graphpad Prism.

The target in assay [2] is SCD1 (Homo sapiens (Human), UniProt O00767). As to the kind of experiment: SCD1 13C-palmitic acid assay in A431 cells. Type of assay: cell-based. The settings on record: read-out: A431 cells 13C-PA IC50. Here is the method:
Human epithelial carcinoma A431 cells were seeded at 100,000 cells/well in complete growth medium (DMEM, Cellgro#10-013-CM, 4.5 g/L glucose, 10% FBS) in the presence of 0.05 mg/mL human insulin (Hannas Pharmaceutical Supply Co Inc, Humanlin 100 U/ml, 4 mg/ml) in 96-well tissue culture plate. 24 hr later, the cells were washed extensively with Assay Buffer (DMEM, Cellgro#10-013-CM, 4.5 g/L glucose, supplemented with 0.05 mg/mL Human Insulin and 0.1% Fatty Acid Free BSA). […] The cells were then returned to the tissue culture incubator (37° C. and 5% CO2) for 4 hrs. At the end of incubation, the cells were washed three times with 200 μL/well Hanks buffer (HBSS) and then stored at −20° C. until extraction.
For fatty acid extraction, after thawing out the plates, 40 μL of 1N KOH (containing 5 μM of internal standard 7,7,8,8-D4 palmitate) was added to each well and cell plates were incubated at 37° C. for 30 minutes. […] Acetonitrile (100 μL) was then added to extract fatty acids, followed by centrifugation at 3000 rpm for 10 minutes. 75 μL of extract was then transferred to a new glass vial in a 96-well cluster plate. 5 μL was injected for LC/MS analysis for detection of ^13C-palmitic acid and ^13C-palmitoleic acid. Formation of product ^13C-palmitoleic acid was determined as an index of SCD1 activity.
LC/MS analysis was performed as following. An Agilent 1100 Liquid Chromatographic System (Palo Alto, Calif.) consisting of a binary pump, a degasser and an autosampler was used. Separation of free fatty acids was performed on a Zorbax SB-C8 column (2.1×50 mm, particle size=3.5 μm). An isocratic elution was carried out with 10 mM triethylamine acetate in water: acetonitrile (3:7) at a flow rate of 0.3 mL/min. The column temperature was set at 30° C. and the sample injection volume was 5 μL. The LC run cycle was 4 min. A Micromass triple-quadrupole Quattro Micro mass […] (Waters, Beverly, Mass.) was interfaced with the LC system through a Z-spray electrospray ion source and was operated in the negative ion mode. Nitrogen was used as nebulizing gas, desolvation gas and cone curtain gas and argon was chosen as collision gas. The triple quadrupole MS source parameters were set as follows: capillary voltage, 3200V; cone voltage, 25V; exctractor 2V; source temperature, 120° C.; desolvation temperature, 300° C.; cone gas flow, 50 L/h; and desolvation gas flow, 700 L/h. […] MassLynx software version 4.0 was used for system control and data processing. The signal of U-^13C-palmitoleic acid was normalized to an internal standard.

“And” between values parts separate entries of the source, which are not always exact repeats. Equal values may be shown once.

Sequence of SCD1 (Homo sapiens (Human), UniProt O00767) (O00767 whole entry): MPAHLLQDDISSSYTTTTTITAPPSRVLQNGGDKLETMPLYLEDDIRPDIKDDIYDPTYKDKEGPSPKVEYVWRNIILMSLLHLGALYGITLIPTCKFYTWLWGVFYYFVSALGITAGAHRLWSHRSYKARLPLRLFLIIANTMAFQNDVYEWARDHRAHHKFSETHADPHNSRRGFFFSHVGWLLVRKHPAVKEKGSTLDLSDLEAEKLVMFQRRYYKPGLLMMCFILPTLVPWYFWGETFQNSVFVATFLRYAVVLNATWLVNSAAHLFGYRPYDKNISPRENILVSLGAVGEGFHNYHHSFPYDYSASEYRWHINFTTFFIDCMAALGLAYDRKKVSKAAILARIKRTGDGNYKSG
Sequence of SCD1 (Rattus norvegicus (Rat), UniProt P07308) (P07308 whole entry): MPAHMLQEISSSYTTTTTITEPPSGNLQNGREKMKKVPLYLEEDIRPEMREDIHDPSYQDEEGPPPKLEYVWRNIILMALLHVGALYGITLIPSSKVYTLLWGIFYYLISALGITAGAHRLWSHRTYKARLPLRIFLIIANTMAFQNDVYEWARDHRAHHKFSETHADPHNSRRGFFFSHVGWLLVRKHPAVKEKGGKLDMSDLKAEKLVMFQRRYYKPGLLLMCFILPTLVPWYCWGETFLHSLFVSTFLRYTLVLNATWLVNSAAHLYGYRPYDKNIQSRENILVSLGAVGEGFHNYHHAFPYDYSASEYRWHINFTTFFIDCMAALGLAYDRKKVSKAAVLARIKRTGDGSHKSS

Consider `OCc1cn(-c2ccc(N3CCC(N4CCc5ccc(F)cc54)CC3)nn2)cn1` [Compound #15], for which the inhibition at 1 µM on SCD1 [1] (1 μM test compound) was 101%. Besides, the figures for the IC50 against SCD1 [1] and on SCD1 [2] were 0.011 µM and 0.003 µM, respectively.

On to `Cc1cnn(-c2ccc(N3CCC(N4CCc5ccc(F)cc54)CC3)nn2)c1` [Compound #16, 6-fluoro-1-(1-(6-(4-methyl-1H-pyrazol-1-yl)pyridazin-3-yl)piperidin-4-yl)indoline], for which, at SCD1 [1] (1 μM test compound), the inhibition at 1 µM is 100%. Also, the IC50 (as a rule, the concentration at which inhibition is half-maximal) at SCD1 [1] came out at 0.021 µM; on SCD1 [2], 0.023 µM.

Turning to `CCn1cc(-c2ccc(N3CCC(N4CCc5ccc(F)cc54)CC3)nn2)cn1` [Compound #21, 1-(1-(6-(1-ethyl-1H-pyrazol-4-yl)pyridazin-3-yl)piperidin-4-yl)-6-fluoroindoline], the inhibition at 1 µM on SCD1 [1] (1 μM test compound) was 94%. Moreover, the half-inhibitory concentration (IC50) was 0.017 µM at SCD1 [1]; 0.04 µM and 0.019 µM at SCD1 [2].

Consider `Cc1csc(-c2ccc(N3CCC(N4CCc5ccc(F)cc54)CC3)nn2)n1` [Compound #29, 2-(6-(4-(6-fluoroindolin-1-yl)piperidin-1-yl)pyridazin-3-yl)-4-methylthiazole], for which the inhibition at 1 µM on SCD1 [1] (1 μM test compound) came to 97%. For the same compound, the IC50 against SCD1 [1] was 0.007 µM; at SCD1 [2], 0.002 µM.

As to `Cc1ccc(-c2ccc(N3CCC(N4CCc5ccc(F)cc54)CC3)nn2)cn1` [Compound #30, 6-fluoro-1-(1-(6-(6-methylpyridin-3-yl)pyridazin-3-yl)piperidin-4-yl)indoline], on SCD1 [1] (1 μM test compound), the “% Inh.@ 1 μM” value came out at 99% and the inhibition at 1 µM came to 95%. Also, the IC50 against SCD1 [1] was 0.006 µM and 0.019 µM. Also, on SCD1 [2], the IC50 was 0.002 µM and 0.003 µM.

`Cc1cnc(-c2ccc(N3CCC(N4CCc5ccc(F)cc54)CC3)nn2)s1` [Compound #31, 2-(6-(4-(6-fluoroindolin-1-yl)piperidin-1-yl)pyridazin-3-yl)-5-methylthiazole]: at SCD1 [1] (1 μM test compound), the inhibition at 1 µM stood at 97%. Besides, the IC50 against SCD1 [1] is 0.031 µM; at SCD1 [2], 0.004 µM and 0.019 µM.

Take `Cc1ccc(-c2ccc(N3CCC(N4CCc5ccc(F)cc54)CC3)nn2)cc1` [Compound #36, 6-fluoro-1-(1-(6-(p-tolyl)pyridazin-3-yl)piperidin-4-yl)indoline]: the inhibition at 1 µM at SCD1 [1] (1 μM test compound) stood at 92%. Moreover, the IC50 against SCD1 [1] was 0.079 µM; at SCD1 [2], 0.003 µM and 0.018 µM.

`COc1ccc(-c2ccc(N3CCC(N4CCc5ccc(F)cc54)CC3)nn2)cn1` [Compound #37, 6-fluoro-1-(1-(6-(6-methoxypyridin-3-yl)pyridazin-3-yl)piperidin-4-yl)indoline]: the inhibition at 1 µM on SCD1 [1] (1 μM test compound) stood at 98%. The figures for the IC50 on SCD1 [1] and at SCD1 [2] were 0.012 µM and 0.004 µM, respectively.

As to `CNC(=O)c1ccc(-c2ccc(N3CCC(N4CCc5ccc(F)cc54)CC3)nn2)cn1` [Compound #42, 5-(6-(4-(6-fluoroindolin-1-yl)piperidin-1-yl)pyridazin-3-yl)-N-methylpicolinamide], the inhibition at 1 µM on SCD1 [1] (1 μM test compound) was found to be 71%. Further, the IC50 against SCD1 [1] worked out at 0.035 µM; on SCD1 [2], 0.006 µM.

With `Fc1ccc(-c2ccc(N3CCC(N4CCc5ccc(F)cc54)CC3)nn2)cc1` [Compound #53, 6-fluoro-1-(1-(6-(4-fluorophenyl)pyridazin-3-yl)piperidin-4-yl)indoline], the inhibition at 1 µM at SCD1 [1] (1 μM test compound) amounted to 59%. The compound also came in with an IC50 against SCD1 [1] of 0.777 µM.

With `Cn1cc(-c2ccc(N3CCC(n4ccc5ccc(F)cc54)CC3)nn2)cn1` [Compound #63, 6-fluoro-1-(1-(6-(1-methyl-1H-pyrazol-4-yl)pyridazin-3-yl)piperidin-4-yl)-1H-indole], the inhibition at 1 µM on SCD1 [1] (1 μM test compound) was 99%.

For `Cn1cc(-c2ccc(N3CCC(N4CCc5c(F)cccc54)CC3)nn2)cn1` [Compound #66, 4-fluoro-1-(1-(6-(1-methyl-1H-pyrazol-4-yl)pyridazin-3-yl)piperidin-4-yl)indoline], on SCD1 [1] (1 μM test compound), the inhibition at 1 µM was 57%. On SCD1 [1], this compound showed an IC50 of 0.678 µM.

For the compound `CC(=O)NNC(=O)c1ccc(N2CCC(c3noc4ccc(F)cc34)CC2)nn1` [Compound I2, N′-acetyl-6-(4-(5-fluorobenzo[d]isoxazol-3-yl)piperidin-1-yl)pyridazine-3-carbohydrazide], the inhibition at 1 µM on SCD1 [1] (1 μM test compound) was determined as 27%.

As to `Cc1ccc(-c2ccc(N3CCC(c4noc5ccc(F)cc45)CC3)nn2)cc1` [compound 32, 5-fluoro-3-(1-(6-(p-tolyl)pyridazin-3-yl)piperidin-4-yl)benzo[d]isoxazole], the inhibition at 1 µM at SCD1 [1] (1 μM test compound) stood at 45%. Besides, on SCD1 [1], the IC50 was greater than 1 µM.

Take `Cn1cc(-c2ccc(N3CCC(n4c(C(F)(F)F)nc5ccccc54)CC3)nn2)cn1` [compound 41, 1-(1-(6-(1-methyl-1H-pyrazol-4-yl)pyridazin-3-yl)piperidin-4-yl)-2-(trifiuoromethyl)-1H-benzo[d]imidazole]: the inhibition at 1 µM on SCD1 [1] (1 μM test compound) turned out to be 38%. Moreover, the IC50 on SCD1 [1] is greater than 1 µM.

With `Cn1cc(-c2ccc(N3CCC(n4nnc5ccccc54)CC3)nn2)cn1` [compound 48, 1-(1-(6-(1-methyl-1H-pyrazol-4-yl)pyridazin-3-yl)piperidin-4-yl)-1H-benzo[d][1,2,3]triazoie], the inhibition at 1 µM at SCD1 [1] (1 μM test compound) stood at 60%. In addition, the midpoint of inhibition on SCD1 [1], the IC50, lay at 0.939 µM.

Take `CC(C)(C)OC(=O)c1ccc(-c2ccc(N3CCC(N4CCc5ccc(F)cc54)CC3)nn2)cc1` [compound 55, tert-butyl 4-(6-(4-(6-fluoroindolin-1-yl)piperidin-1-yl)pyridazin-3-yl)benzoate]: the inhibition at 1 µM on SCD1 [1] (1 μM test compound) was determined as 8%. This compound registered an IC50 against SCD1 [1] greater than 1 µM.

Consider `NC(=O)c1ccc(-c2ccc(N3CCC(N4CCc5ccc(F)cc54)CC3)nn2)cc1` [compound 56, 4-(6-(4-(6-fluoroindolin-1-yl)piperidin-1-yl)pyridazin-3-yl)benzamide], for which, at SCD1 [1] (1 μM test compound), the inhibition at 1 µM worked out at 28%. On SCD1 [1], this compound displayed a concentration for half-maximal inhibition (IC50) greater than 1 µM.

In the case of `Cn1cc(-c2ccc(N3CCC(N4CCc5c(Cl)cccc54)CC3)nn2)cn1` [compound 67, 4-chloro-1-(1-(6-(1-methyl-1H-pyrazol-4-yl)pyridazin-3-yl)piperidin-4-yl)indoline], the inhibition at 1 µM on SCD1 [1] (1 μM test compound) amounted to 32%. Also, the IC50 at SCD1 [1] was greater than 1 µM.

For `Cn1cc(-c2ccc(N3CCC(N4CCc5c(Cl)cc(Cl)cc54)CC3)nn2)cn1` [compound 68, 4,6-dichloro-1-(1-(6-(1-methyl-1H-pyrazol-4-yl)pyridazin-3-yl)piperidin-4-yl)indoline], on SCD1 [1] (1 μM test compound), the inhibition at 1 µM was found to be 34%.

For `Fc1ccc2onc(C3CCN(c4ccc(-n5cccn5)nn4)CC3)c2c1` [compound 87, 3-(1-(6-(1H-pyrazol-1-yl)pyridazin-3-yl)piperidin-4-yl)-5-fluorobenzo[d]isoxazole], at SCD1 [1] (1 μM test compound), the inhibition at 1 µM came to 45%.

Take `Cc1cn(-c2ccc(N3CCC(N4CCCc5ccccc54)CC3)nn2)cn1` [compound 90, 1-(1-(6-(4-methyl-1H-imidazol-1-yl)pyridazin-3-yl)piperidin-4-yl)-1,2,3,4-tetrahydroquinoline]: on SCD1 [1] (1 μM test compound), the inhibition at 1 µM is 29%.

As for `Cc1nccn1-c1ccc(N2CCC(c3noc4ccc(F)cc34)CC2)nn1` [compound 93, 5-fluoro-3-(1-(6-(2-methyl-1H-imidazol-1-yl)pyridazin-3-yl)piperidin-4-yl)benzo[d]isoxazole], the inhibition at 1 µM on SCD1 [1] (1 μM test compound) worked out at 41%.

The values are drawn from patent publication US9102669B2, “Substituted piperidinyl-pyridazinyl derivatives useful as SCD 1 inhibitors” (Janssen Pharmaceutica NV, priority 2011, dated 2015).
